The text below walks through data of patent US11014926B2, “Pyrrolo-, pyrazolo-, imidazo-pyrimidine and pyridine compounds that inhibit MNK1 and MNK2” (EFFECTOR THERAPEUTICS, INC., priority 2015, dated 2021).

Assay [1] concerns Phosphorylated eIF4E. In words: peIF4E Signaling Cellular Assay (CisBio peIF4E HTRF). The assay is classed as cell-based. The note with it: cells incubated with compound for 2 hrs at 37° C. The method, then:
Phosphorylated eIF4E is assayed using the CisBio peIF4E HTRF® assay kit (CisBio, catalogue No. 64EF4PEG). Cells are plated in 96-well tissue-culture treated plate in appropriate growth medium (90 μL). Compounds (10×) are diluted using 3-fold serial dilutions in cell culture medium and added to cells. Plates are incubated for 2 hrs at 37° C. The cell supernatant is carefully removed either by aspirating supernatant or by flicking the plate. Immediately 50 μL of supplemented lysis buffer (IX) is added and incubated for at least 30 minutes at room temperature under shaking. After homogenization by pipetting up and down, 16 μL of cell lysate is transferred from the 96-well cell-culture plate to a 384-well small volume white plate, 4 μL of premixed antibody solutions (vol/vol) is prepared in the detection buffer and added. The plate is covered with a plate sealer and incubated overnight at room temperature. The fluorescence emissions at two different wavelengths are read (665 nm and 620 nm) on a Wallac Victor2. Emission ratios are converted into percent inhibitions and imported into GraphPad Prism software. […] IC50 values are determined using a nonlinear regression model available in GraphPad Prism 5.
To this end, IC50 values of less than 0.05 μM are labeled as “+++”, from 0.05 to 1.0 μM are labeled as “++”, greater than 1.0 to 100 μM are labeled as “+”, and NA means “not available”.

Assay [2] concerns the target recombinant MNK2 (Homo sapiens (Human), UniProt Q9HBH9). In words: MNK Biochemical Enzymatic Assay (ADP-Glo kinase assay), MNK2. On the procedure: Compounds are screened for MNK inhibition using the ADP-Glo kinase assay kit (Promega, catalogue No. V9101). All kinase reactions are performed in Reaction Buffer E (15 mM HEPES pH7.4, 20 mM NaCl, 1 mM EGTA, 10 mM MgCl2, 0.1 mg/ml BGG, and 0.02% Tween-20). […] Final DMSO concentration in each reaction is 1%.
(§1) Kinase reactions are carried out in 96-well half-area white flat-bottom polystyrene plates in a final volume of 25 μl. MNK1/2 enzymes are pre-incubated with compound and peptide substrate for 5 minutes prior to the addition of ATP. After the addition of ATP, kinase reactions are incubated at room temperature for 40 minutes. Reactions are subsequently stopped by the addition of 25 μl of ADP-Glo Reagent and incubating for an additional 40 minutes. The final luminescent signal used for kinase activity readout is produced by the addition of 45 μl of Kinase Detection Reagent (ADP-Glo kit, Promega) and incubating for 40 minutes. The luminescent signal is detected using a Victor 2 multilabel counter (Perkin Elmer) and the concentration of compound necessary to achieve inhibition of enzyme activity by 50% (IC50) is calculated using signals from an 8-point compound dilution series.
A general note: In ADP-Glo the light output rises with the ADP produced.

Assay [3] addresses recombinant MNK1 (Homo sapiens (Human), UniProt Q9BUB5). Nature of the assay: MNK Biochemical Enzymatic Assay (ADP-Glo kinase assay), MNK1. Conditions: 10 nM recombinant MNK1, 300 μM ATP. On the procedure:
Compounds are screened for MNK inhibition using the ADP-Glo kinase assay kit (Promega, catalogue No. V9101). All kinase reactions are performed in Reaction Buffer E (15 mM HEPES pH7.4, 20 mM NaCl, 1 mM EGTA, 10 mM MgCl2, 0.1 mg/ml BGG, and 0.02% Tween-20). Final MNK 1 reactions contained 10 nM recombinant MNK1 (Life Technologies, PR9138A), 100 μM MNK substrate peptide Ac-TATKSGSTTKNR-NH2 (American Peptide Company), 300 μM ATP, and varying concentrations of the inhibitory compound of interest. Final MNK2 reactions contained 3 nM recombinant MNK2 (Life Technologies, PV5607), 50 μM MNK substrate peptide Ac-TATKSGSTTKNR-NH2 (American Peptide Company), 10 μM ATP, and varying concentrations of the inhibitory compound of interest. Final DMSO concentration in each reaction is 1%.
as §1
To this end, IC50 values of less than 0.01 μM are labeled as “+++”, from 0.01 to 0.1 μM are labeled as “++”, and greater than 0.1 to 10.0 μM are labeled as “+” (NA means “not available”).

The mark [4] stands for this setting: 3 nM recombinant MNK2, 10 μM ATP, read-out: IC50 Mnk2.

The structures appear in SMILES notation. Where a name gives a salt, the structure may show the parent alone. Read-outs that look alike come from different tables or passages of the source.

Broadly, the IC50 is the concentration that inhibits the measured activity by half.

Chain of recombinant MNK1 (Q9BUB5 whole entry): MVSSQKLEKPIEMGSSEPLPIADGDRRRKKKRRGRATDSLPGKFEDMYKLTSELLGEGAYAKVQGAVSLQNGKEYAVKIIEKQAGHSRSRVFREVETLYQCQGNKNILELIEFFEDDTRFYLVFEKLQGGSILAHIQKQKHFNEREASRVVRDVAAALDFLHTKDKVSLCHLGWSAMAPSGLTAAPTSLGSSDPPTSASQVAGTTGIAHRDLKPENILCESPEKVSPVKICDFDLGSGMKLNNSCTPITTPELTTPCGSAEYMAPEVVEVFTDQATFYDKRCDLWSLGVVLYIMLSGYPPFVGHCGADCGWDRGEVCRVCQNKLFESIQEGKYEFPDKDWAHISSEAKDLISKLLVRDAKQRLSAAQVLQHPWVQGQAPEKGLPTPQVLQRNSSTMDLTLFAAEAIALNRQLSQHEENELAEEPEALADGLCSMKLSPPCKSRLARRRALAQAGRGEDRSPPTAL
Chain of recombinant MNK2 (Q9HBH9 whole entry): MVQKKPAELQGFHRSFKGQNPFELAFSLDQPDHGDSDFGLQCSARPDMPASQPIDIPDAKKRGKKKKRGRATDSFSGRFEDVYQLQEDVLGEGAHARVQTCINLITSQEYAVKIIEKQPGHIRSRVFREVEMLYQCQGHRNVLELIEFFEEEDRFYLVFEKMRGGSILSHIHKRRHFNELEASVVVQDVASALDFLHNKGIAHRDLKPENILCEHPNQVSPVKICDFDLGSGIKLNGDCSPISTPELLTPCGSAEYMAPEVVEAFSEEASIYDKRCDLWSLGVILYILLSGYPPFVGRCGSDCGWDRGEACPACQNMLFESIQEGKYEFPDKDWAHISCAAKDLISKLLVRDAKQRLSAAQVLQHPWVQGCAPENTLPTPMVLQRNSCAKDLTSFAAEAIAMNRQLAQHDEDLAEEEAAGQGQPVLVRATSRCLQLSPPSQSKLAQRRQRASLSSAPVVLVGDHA

As for `Cn1cc(-c2cn(-c3ccc4c(c3)CNC4=O)c3ncncc23)cn1` [Cpd. No. 8, 5-(5-(1-methyl-1H-pyrazol-4-yl)-7H-pyrrolo[2,3-d]pyrimidin-7-yl)isoindolin-1-one], the figures for the IC50 in assay [1], in assay [2] and in assay [3] were 1000 to 100000 nM, 10 to 100 nM and 10 to 100 nM, respectively.
For the compound `Cc1cc(-n2ccc3c(N)ncnc32)cc2c1C(=O)NC21CCN(CC(F)F)CC1` [Cpd. No. 33, 6-(4-amino-7H-pyrrolo[2,3-d]pyrimidin-7-yl)-1′-(2,2-difluoroethyl)-4-methylspiro[isoindoline-1,4′-piperidin]-3-one], in assay [1], the IC50 was in the range of 50 to 1000 nM.
Consider `O=C1NCc2cc(-n3ccc4cnccc43)ncc21` [Cpd. No. 11, 6-(1H-pyrrolo[3,2-c]pyridin-1-yl)-1H-pyrrolo[3,4-c]pyridin-3(2H)-one], for which the IC50 in assay [1] fell in the range of 1000 to 100000 nM; in assay [2], 100 to 10000 nM.
In the case of `c1cc2cc(-n3ccc4cncnc43)ccc2cn1` [Cpd. No. 6, 6-(7H-pyrrolo[2,3-d]pyrimidin-7-yl)isoquinoline], the IC50 in assay [1] lay within 1000 to 100000 nM; in assay [2] it was 100 to 10000 nM.
Take `CC1(C)NC(=O)c2c(Cl)cc(-n3ccc4cncnc43)cc21` [Cpd. No. 18, 7-chloro-3,3-dimethyl-5-(7H-pyrrolo [2,3-d]pyrimidin-7-yl) isoindolin-1-one]: the IC50 in assay [1] is 50 to 1000 nM; in assay [2] (setting [4]), less than 10 nM; in assay [3] it was less than 10 nM.
As for `CC1NC(=O)c2ccc(-n3ccc4cncnc43)cc21` (stereo not drawn) [Cpd. No. 2, 3-methyl-5-(7H-pyrrolo[2,3-d]pyrimidin-7-yl)isoindolin-1-one], in assay [2], the 50% inhibitory concentration (IC50) was 100 to 10000 nM.
Same read-out and setting: with `O=C1NCc2cc(-n3ncc4cnccc43)ccc21` [Cpd. No. 4, 5-(1H-pyrazolo[4,3-c]pyridin-1-yl)isoindolin-1-one] the figure was 100 to 10000 nM.
On to `NCC1NC(=O)c2ccc(-n3ccc4cncnc43)cc21` (stereo not drawn) [Cpd. No. 21, 3-(aminomethyl)-5-(7H-pyrrolo[2,3-d]pyrimidin-7-yl)isoindolin-1-one hydrochloride], for which the IC50 in assay [2] fell in the range of 100 to 10000 nM.
On the same count and under the same terms, with `Nc1ncnc2c1ccn2-c1ccc2c(c1)CNC2=O` [Cpd. No. 12, 5-(4-amino-7H-pyrrolo [2,3-d]pyrimidin-7-yl) isoindolin-1-one] the figure was 100 to 10000 nM; with `O=C1NCc2nc(-n3ccc4cnccc43)ncc21` [Cpd. No. 14, 2-(1H-pyrrolo[3,2-c]pyridin-1-yl)-6,7-dihydro-5H-pyrrolo[3,4-d]pyrimidin-5-one], 100 to 10000 nM; with `O=C1NCc2cc(-n3cc(-c4ccccc4Cl)c4cncnc43)ccc21` [Cpd. No. 24, 5-(5-(2-chlorophenyl)-7H-pyrrolo [2,3-d]pyrimidin-7-yl) isoindolin-1-one], 100 to 10000 nM.
Consider `O=C1NC2(CCCCC2)c2cc(-n3ccc4cncnc43)cc(Cl)c21` [Cpd. No. 29, 4′-chloro-6′-(7H-pyrrolo[2,3-d]pyrimidin-7-yl)spiro[cyclohexane-1,1′-isoindolin]-3′-one], for which the IC50 in assay [1] was less than 50 nM; in assay [2], 10 to 100 nM.
For the compound `COC(=O)NCC1NC(=O)c2ccc(-n3ccc4cncnc43)cc21` (stereo not drawn) [Cpd. No. 20, methyl ((3-oxo-6-(7H-pyrrolo[2,3-d]pyrimidin-7-yl)isoindolin-1-yl)methyl)carbamate], the half-inhibitory concentration (IC50) in assay [2] lay in the range of 100 to 10000 nM.
The same measure, in the same setting: in the case of `N#Cc1ccccc1-c1cn(-c2ccc3c(c2)CNC3=O)c2ncncc12` [Cpd. No. 26, 2-(7-(1-oxoisoindolin-5-yl)-7H-pyrrolo[2,3-d]pyrimidin-5-yl)benzonitrile] it was 100 to 10000 nM.
Consider `Nc1ncnc2c1ccn2-c1cc(Cl)c2c(c1)C1(CCCC1)NC2=O` [Cpd. No. 30, 6′-(4-amino-7H-pyrrolo[2,3-d]pyrimidin-7-yl)-4′-chlorospiro[cyclopentane-1,1′-isoindolin]-3′-one], for which the IC50 was less than 50 nM in assay [1] and less than 10 nM in assay [2] (setting [4]).
Turning to `O=C1NCc2nc(-n3ccc4cncnc43)ccc21` [Cpd. No. 32, 2-(7H-pyrrolo[2,3-d]pyrimidin-7-yl)-6,7-dihydro-5H-pyrrolo[3,4-b]pyridin-5-one], in assay [1], the IC50 is 50 to 1000 nM.
On the same count and under the same terms, in the case of `Cc1cc(-n2ccc3c(N)ncnc32)nc2c1C(=O)NC21CCCCC1` [Cpd. No. 34, 2′-(4-amino-7H-pyrrolo[2,3-d]pyrimidin-7-yl)-4′-methylspiro[cyclohexane-1,7′-pyrrolo[3,4-b]pyridin]-5′(6′H)-one] it was less than 50 nM.
`CC1NC(=O)c2c(Cl)cc(-n3ccc4cncnc43)cc21` (stereo not drawn) [Cpd. No. 17, 7-chloro-3-methyl-5-(7H-pyrrolo [2,3-d]pyrimidin-7-yl) isoindolin-1-one]: the IC50 in assay [1] was 50 to 1000 nM; in assay [2] it was 10 to 100 nM; in assay [3], less than 10 nM.
For `O=C1NCc2cc(-n3cc(-c4cscn4)c4cncnc43)ccc21` [Cpd. No. 25, 5-(5-(thiazol-4-yl)-7H-pyrrolo[2,3-d]pyrimidin-7-yl)isoindolin-1-one], the IC50 in assay [2] was 100 to 10000 nM.
As to `CC1NC(=O)c2ccc(N3CCc4cncnc43)cc21` (stereo not drawn) [Cpd. No. 3, 3-methyl-5-(5H-pyrrolo[2,3-d]pyrimidin-7(6H)-yl)isoindolin-1-one], the IC50 in assay [1] lay in the range of 1000 to 100000 nM; in assay [2], 100 to 10000 nM.
Take `Cc1cc(-n2ccc3c(N)ncnc32)cc2c1C(=O)NC21CCN(C)CC1` [Cpd. No. 31, 6-(4-amino-7H-pyrrolo [2,3-d]pyrimidin-7-yl)-1′,4-dimethylspiro[isoindoline-1,4′-piperidin]-3-one]: the IC50 in assay [1] lay in the range of 50 to 1000 nM.
Take `Cc1cc(-n2ccc3cncnc32)cc2c1C(=O)NC2C` (stereo not drawn) [Cpd. No. 22, 3,7-dimethyl-5-(7H-pyrrolo[2,3-d]pyrimidin-7-yl)isoindolin-1-one]: the results for the IC50 in assay [1], in assay [2] and in assay [3] were 1000 to 100000 nM, 10 to 100 nM and 10 to 100 nM, respectively.
For `O=C1NC2(CCCC2)c2cc(-n3ccc4cncnc43)cc(Cl)c21` [Cpd. No. 27, 4′-chloro-6′-(7H-pyrrolo[2,3-d]pyrimidin-7-yl)spiro[cyclopentane-1,1′-isoindolin]-3′-one], the IC50 in assay [1] is 50 to 1000 nM; in assay [2] (setting [4]), less than 10 nM.
The corresponding values for `Nc1ncnc2c1ccn2-c1cc(Cl)c2c(c1)C1(CCCCC1)NC2=O` [Cpd. No. 28, 6′-(4-amino-7H-pyrrolo[2,3-d]pyrimidin-7-yl)-4′-chlorospiro[cyclohexane-1,1′-isoindolin]-3′-one] are less than 50 nM and less than 10 nM.
For the compound `O=C1NCc2nc(-n3ccc4cnccc43)ccc21` [Cpd. No. 5, 2-(1H-pyrrolo[3,2-c]pyridin-1-yl)-6,7-dihydro-5H-pyrrolo[3,4-b]pyridin-5-one], the IC50 in assay [2] was 100 to 10000 nM.
With `O=C1NCc2cc(-n3cnc4cncnc43)ccc21` [Cpd. No. 16, 5-(9H-purin-9-yl) isoindolin-1-one], the IC50 in assay [2] was 100 to 10000 nM.
Still for that read-out and setting: in the case of `O=C1NCc2cc(-n3cc(-c4ccncc4)c4cncnc43)ccc21` [Cpd. No. 19, 5-(5-(pyridin-4-yl)-7H-pyrrolo[2,3-d]pyrimidin-7-yl)isoindolin-1-one] it was 100 to 10000 nM; in that of `Cc1ncnc2c1ccn2-c1ccc2c(c1)CNC2=O` [Cpd. No. 7, 5-(4-methyl-7H-pyrrolo[2,3-d]pyrimidin-7-yl) isoindolin-1-one], 100 to 10000 nM.
In the case of `O=C1NCc2cc(-n3ccc4cncnc43)cc(F)c21` [Cpd. No. 23, 7-fluoro-5-(7H-pyrrolo [2,3-d]pyrimidin-7-yl) isoindolin-1-one], the IC50 in assay [2] fell in the range of 100 to 10000 nM.
The same measure, in the same setting: with `c1ncc2ccn(-c3ccc4c(c3)CSC4)c2n1` [Cpd. No. 13, 7-(1,3-dihydrobenzo[c]thiophen-5-yl)-7H-pyrrolo[2,3-d]pyrimidine] the figure was 100 to 10000 nM.
